Experiments:
[1] = tested on: YU2 HIV-1 virus; test: NSG humanized mice infected with YU2 HIV-1 virus, viral load; format: in vivo, mouse
Method: All manipulations of NSG-HIS mice were performed under laminar flow. Gavage of mice was performed daily with a stainless steel gavage needle (Straight 22 Gauge, 1.4 inch in length). […] Mice were monitored three times a week for symptoms or signs of adverse events, according to a standard score sheet.
Mice were infected intraperitoneally i.p. with JR-CSF, 1×10^3 TCID50 per mouse and HIV YU-2, 1×106 TCID50 per mouse. HIV RNA plasma levels were measured by RT-PCR (Amplicor HIV-1 test or AmpliPrep/COBAS TaqMan HIV-1 Test, Roche) at various times after infection.

[2] = tested on: HIV-1 strains (clade B, clade C and recombinants clades); test: p24 inhibition in PBMCs infected with different HIV-1 strains (patient isolates); format: cell-based; conditions: 5 μM, 6 days pi, subtype B, C and recombinant viruses
Method: FIG. 2. HIV p24 inhibition of Compound 22 from different HIV-1 strains. A) Different HIV-1 strains (clade B, clade C and recombinants clades) were used to infect PBMCs from three different donors in the absence of presence of 5 μM of Compound 22. Supernatant was harvested 6 days pi and viral capsid protein p24 antigen was quantitated using standard ELISA protocol.

[3] = tested on: primary macrophages; test: Cell viability of treated primary macrophages; format: cell-based, human; conditions: macrophages under treatment (data not shown)
Method: To generate monocyte derived macrophages (MDMs), monocytes were isolated using CD14 microbeads (catalog no. 130-050-201; Miltenyi) and cultured in X-VIVO10 medium (Lonza) supplemented with GM-CSF 1000 U/ml and M-CSF 100 ng/ml for 6 days. Monocytes were seeded at a cell count of 50,000 cells per well in a 96 well plate. After 6 days medium was replaced with X-VIVO10 w/o Cytokines. After 2 days Macrophages were treated with Compound 22 and/or its N-glucuronide metabolite o/n and next day infected with Yu-2 virus for 6 hrs, washed with PBS and cultured in medium containing the compounds for 12 days. Supernatant for p24 Elisa was collected 2 times a week.

[4] = tested on: HIV-1
Method: Resistance to Compound 22 was tested on human PBMCs and compared to current therapies. […] Various classes of antiviral agents can affect the life cycle of HIV-1 in different manners. […] The selection of drug resistant mutants in vitro can be readily accomplished by maintaining the virus in a state of sub-optimal growth, regulated by slowly increasing the amount of drug pressure applied. This technique mimics the consequences of drug therapy in patients. Therefore, in this way, novel compounds can be assessed for their selection profile in order to evaluate the likelihood of emergence of HIV-1 drug resistance in future clinical trials. In addition, combinations of drugs can be investigated in the same manner.

[5] = tested on: JRCSF HIV-1 strain; test: Reconstituted SCID mice infected with JRCSF HIV-1 strain; format: in vivo, mouse
Method: FIG. 3. Efficacy of Compound 22 to inhibit viral replication in humanized mice. A) Reconstituted SCID mice were infected with JRCSF HIV-1 strain by intraperitoneal injection. Control group received by gavage labrafil and 5% DMSO (n=15) and treated group 20 mg/kg b.i.d of Compound 22 in labrafil and 5% DMSO (n=14) for 15 days. Two independent experiments were performed with 5 and 10 reconstituted mice for each group. Viral load was assessed by measuring viral RNA using the Amplicor HIV-1 Monitor from Roche. B) FACS analysis was performed on peritoneal wash at day 15 post-treatment to assess the CD8/CD4 ratio. C) Engrafted NSG humanized mice were treated by oral gavage with Compound 22 at either 20 mg or 40 mg/kg once a day for 30 days and indicated lymphocyte populations (CD45+; CD4+ and CD8+) were monitored by FACS analysis. D) NSG humanized mice were infected with the YU2 HIV-1 virus and treated either by oral gavage with Compound 22 at 40 mg/kg once a day for 30 days or by HAART (3TC-Tenofovir-Raltegravir and AZT). […] Viral load was assessed by measuring viral RNA using the Amplicor HIV-1 Monitor from Roche. […]
Briefly, TCID50 (tissue culture infectious dose 50%) was determined by infecting human CD8+ T-cell-depleted peripheral blood mononuclear cells (PBMCs) from three donors which were stimulated by addition of IL-2, PHA and anti-CD3 beads (Dynal 11131D, Life Technologies). […] HIV RNA plasma levels were measured by RT-PCR (Amplicor HIV-1 test or AmpliPrep/COBAS TaqMan HIV-1 Test, Roche) at various times after infection.
Cell suspensions were labeled with anti-human monoclonal antibodies (mAb) targeting the following cell-surface markers: CD45-FITC, CD3-PE, CD4-Pe Cy7, CD8-BV421 and CD19-APC (all from Biolegend). Washing and reagent dilutions were done with FACS buffer (PBS containing 2% fetal calf serum and 0.05% sodium azide (NaN3). All acquisitions were performed on a Cyan ADP (Beckman Coulter) flow cytometer. Data were analyzed with FlowJo software (Ashland, Oreg.). Cellular debris and dead cells were excluded by their light-scattering characteristics.

[6] = 20 mg/kg twice a day, FACS at day 15

FC(F)(F)Oc1ccc(Nc2ccc3cccc(Cl)c3n2)cc1 [Compound 22, 8-chloro-N-(4-(trifluoromethoxy)phenyl)quinolin-2-amine]
viral load during treatment ([1]; 40 mg/kg daily, 30 days of treatment): reduced the viral load | time the viral load remained low after treatment termination ([1]; after 30 days of treatment): at least 50 days | inhibitory effect on HIV-1 subtypes (p24) [2]: strong inhibitory effect | cell viability [3]: not decreased | genotoxicity ([4]; conclusion drawn from the mutation selection results): not genotoxic | Time of Selection (weeks) ([4]; human PBMCs, increasing drug pressure): 24 weeks | resistance-inducing mutations detected after treatment ([4]; treatment for at least 24 weeks): no resistance-inducing mutations detected | viral load (viral RNA) ([5]; 20 mg/kg twice a day oral gavage, 15 days of treatment): significantly reduce the viral load | CD8+/CD4+ ratio [5, 6]: restores CD8+/CD4+ ratio back to that of non-infected mice | depletion of CD4+ cells following infection [5, 6]: prevents depletion of CD4+ cells
